{"source": "patent US20170096492A1", "about": "“DOSAGE AND ADMINISTRATION OF ANTI-IGF-1R, ANTI-ErbB3 BISPECIFIC ANTIBODIES, USES THEREOF AND METHODS OF TREATMENT [sequence]” (Merrimack Pharmaceuticals, Inc., priority 2014, published 2017)", "key": {"[1]": {"tested_on": "IGF-1R and ErbB3 receptors", "test": "Receptor expression ELISA versus monospecific antibodies (Example 31)", "assay_type": "cell-based", "conditions": "50 nM, four hours post-treatment, compared with monospecific antibodies", "method": "Cell lysates were harvested four hours post-treatment with antibodies as indicated in FIGS. 33A and 33B (50 nM of each antibody) and changes in receptor expression were measured by ELISA. All ELISA measurements are normalized to vehicle (PBS) treatment, and these measurements are expressed relative to a vehicle treated control value of 1."}, "[2]": {"tested_on": "CAKI-1 xenografts", "test": "CAKI-1 xenograft PD, western blot", "assay_type": "in vivo, mice", "method": "For the PD study results shown in FIGS. 3A-B and FIGS. 5A-C, NOD/SCID female mice were inoculated with 12×10^6 CAKI-1 or 10×10^6 SK-ES-1 cells, respectively, in 1:1 Matrigel® suspension. […] Tumors were harvested 24 hours after the second dose of drug; lysates were generated and subjected to western blot analysis."}, "[3]": {"tested_on": "HepG2 hepatocellular carcinoma cells", "test": "HepG2 western blot, sorafenib with or without MM-141", "assay_type": "cell-based", "conditions": "MM-141 500 nM added to sorafenib 5 μM, 2 hours", "method": "HepG2 cells were plated on 12 well dishes (3×10^5 cells per well) in 10% serum-containing media and incubated overnight. […] Following treatment, cells were harvested in lysis buffer containing protease and phosphatase inhibitors and analyzed by western blotting."}, "[4]": {"tested_on": "BxPC-3 cells", "test": "Cellular proliferation assay in low serum with or without IGF-1 or HRG", "assay_type": "cell-based, human", "conditions": "for inhibition of cell growth: low (2%) serum"}, "[5]": {"tested_on": "CFPAC-1 pancreatic cancer cells", "test": "pAKT (Ser473) ELISA after chemotherapy and ligand stimulation", "assay_type": "cell-based, human", "conditions": "24 hours", "method": "CFPAC-1 pancreatic cancer cells were seeded at 65% confluence in 10% serum-containing medium on 96-well plates overnight. […] Following incubation, cells were treated with (FIG. 24A) HRG (5 nM) or (FIG. 24B) IGF-1 (50 nM) for 15 minutes, where indicated. After treatment, cells were harvested and protein lysates generated. Changes in pAKT (Ser473) levels across all treatments were evaluated by pAKT ELISA, respectively. FIGS. 24(A-B) are bar graphs showing pAKT levels relative to ligand alone stimulated signals, which were normalized to 1.\nCFPAC-1 pancreatic cancer cells were seeded at 65% confluence in 10% serum-containing medium on 96-well plates overnight. […] Following incubation, cells were treated with (FIG. 25A) HRG (5 nM) or (FIG. 25B) IGF-1 (50 nM) for 15 minutes, where indicated. After treatment, cells were harvested and protein lysates generated. Changes in pAKT (Ser473) levels across all treatments were evaluated by pAKT ELISA, respectively. FIGS. 25(A-B) are bar graphs showing pAKT levels relative to ligand alone stimulated signals, which were normalized to 1."}, "[6]": {"tested_on": "ovarian cancer cell lines (PEA1, PEA2, OvCAR8)", "test": "Growth-factor-induced proliferation, 3D in vitro assays (CTG)", "assay_type": "cell-based"}, "[7]": {"tested_on": "total IGF-1 in serum", "test": "Phase 1 PD analysis of total IGF-1 in serum (Quantikine ELISA)", "assay_type": "in vivo, human", "method": "Serum for PK and PD analysis was prepared by drawing whole blood into red top tubes, clotting 30 minutes at 4-8° C. and spinning down in a refrigerated centrifuge. Serum was aliquotted and frozen immediately after centrifugation. PD analysis of total IGF-1 in serum was performed using Human IGF-I Quantikine® ELISA Kit (R&D Systems, Minneapolis, Minn.) according to the manufacturer's instructions. For the PK analysis, in brief, ELISA plates were plates were coated with IGF-1R (R&D Systems) in PBS and incubated overnight at 4° C. Plates were washed, blocked, and then samples and standards were added to plates and incubated for 2 hr at room temperature. Plates were washed and ErbB3-His was added for 1 hr at room temperature. Plates were washed and anti-His-HRP (Abeam, Cambridge, Mass.) was added for 1 hr at room temperature. Plates were developed using TMB and STOP solution and absorbance was read at 450 nm. PK parameters were analyzed using descriptive statistics including the median, mean and 95% confidence intervals around parameter estimates by dose level. All PK parameters included Cmax, Tmax, AUC (area under the concentration curve), clearance, volume of distribution at steady state (Vdss), and the terminal elimination half-life. Estimation of the PK parameters was performed using standard non-compartmental methods."}, "[8]": {"tested_on": "BxPC-3 (KRas wild-type) pancreatic cancer cells", "test": "pAKT western blot, GSK-1120212 and MM-141", "assay_type": "cell-based, human", "conditions": "24 h", "method": "Following treatment, cells were harvested in cell lysis buffer and western blotting was performed and quantified for pAKT (Serine 473)."}, "[9]": {"tested_on": "CFPAC-1 pancreatic cancer cells", "test": "CellTiter-Glo viability in three-dimensional nano-culture plates", "assay_type": "cell-based, human", "method": "CFPAC-1 pancreatic cancer cells were seeded in 10% serum-containing medium and incubated in 96-well three-dimensional nano-culture plates overnight. […] Cell viability was measured 96 hours post-treatment using CellTiter-Glo® (Promega)."}, "[10]": {"tested_on": "BxPC-3 pancreatic cancer cells", "test": "CTG cell viability, paclitaxel with IGF-1 or HRG, three-dimensional cultures", "assay_type": "cell-based, human", "method": "The cell viability assay (FIGS. 7A-B and 8A-B) was carried out using a CellTiter-Glo® (CTG) assay (Promega), which determines the number of viable cells in a culture based on quantitation of the ATP present. In FIGS. 7A-B, BxPC-3 cells were grown in low serum alone or with exogenous IGF-1 or HRG added (0-50 nM). […] For the cell viability assays described in FIGS. 8(A-B), (FIG. 8A) BxPC-3 and (FIG. 8B) CFPAC-1 cells were cultured in low (2%) serum alone or with a combination of IGF-1 (50 nM) and HRG (10 nM)."}, "[11]": {"tested_on": "hepatocellular carcinoma tumor biopsies", "test": "Immunohistochemistry of pre- and post-treatment tumor biopsies (cohort 4D)", "assay_type": "in vivo, human", "conditions": "post- vs pre-treatment, MM-141 20 mg/kg weekly, sorafenib-refractory HCC", "source_text": "Formalin fixed, paraffin embedded biopsy samples were sectioned at 5 μm, processed and stained for IGF-1R (G11 clone detection antibody, Ventana) and ErbB3 (clone D22 antibody, Cell Signaling Technology)."}, "[12]": {"conditions": "single agent, MM-141 30 mpk i.p. or everolimus 10 mpk orally, 2 doses, tumors harvested 24 hours after second dose"}, "[13]": {"conditions": "MM-141 500 nM added to paclitaxel 50 nM"}}, "note": "Entries after “also recorded” stand apart in the source; their conditions may differ."}
{"substance": "MM-141: polyvalent bispecific antibody P4-G1-M1.3, anti-IGF-1R and anti-ErbB3; heavy chain SEQ ID NO: 3, light chain SEQ ID NO: 4", "values": [{"measurement": "decrease of ErbB3 expression level", "setting": "[1]", "value": "to a greater extent"}, {"measurement": "decrease of IGF-1R expression level", "setting": "[1]", "value": "to a greater extent"}, {"measurement": "everolimus-induced upregulation of IGF-1R and ErbB2 (resistance mechanism)", "setting": "[2]; MM-141 30 mpk i.p. co-administered with everolimus 10 mpk orally", "value": "resistance mechanism was inhibited"}, {"measurement": "total ErbB2", "setting": "[2]; [12]", "value": "down regulation"}, {"measurement": "total IGF-1R", "setting": "[2]; [12]", "value": "down regulation"}, {"measurement": "sorafenib-induced up-regulation of ErbB3 and pAKT", "setting": "[3]", "value": "overcome"}, {"measurement": "inhibition of cell growth, greater than in the absence of ligand", "setting": "[4]; in presence of HRG", "value": "approximately 50%"}, {"measurement": "inhibition of cell growth", "setting": "[4]; IGF-1 added to the media", "value": "maximal activity"}, {"measurement": "inhibition of cell growth", "setting": "[4]; absence of exogenous ligand", "value": "unable to inhibit cell growth"}, {"measurement": "gemcitabine-induced increased sensitivity to HRG and IGF-1, pAKT (Ser473)", "setting": "[5]; MM-141 500 nM with gemcitabine 1 μM", "value": "this effect is blocked"}, {"measurement": "paclitaxel-induced increased sensitivity to IGF-1, pAKT (Ser473)", "setting": "[5]; MM-141 500 nM with paclitaxel 100 nM", "value": "this effect is blocked"}, {"measurement": "IGF-1 and HRG growth-factor-induced proliferation", "setting": "[6]", "value": "blocks"}, {"measurement": "increase in serum total IGF-1", "setting": "[7]; 6 mg/kg cohort", "value": "approximately two-fold in 1/3 patient samples"}, {"measurement": "increase in serum total IGF-1", "setting": "[7]; 12 mg/kg cohort", "value": "approximately two-fold in 1/3 patient samples"}, {"measurement": "increase in serum total IGF-1", "setting": "[7]; 20 mg/kg, all patient samples", "value": "approximately a two-fold increase"}, {"measurement": "increase in serum total IGF-1", "setting": "[7]; 40 mg/kg, all patient samples", "value": "approximately two to four fold increases"}, {"measurement": "pAKT upregulation induced by the MEK inhibitor", "setting": "[8]; MM-141 1000 nM with GSK-1120212 250 nM", "value": "decreases the pAKT upregulation"}, {"measurement": "pAKT (Serine 473) level", "setting": "[8]; single agent, GSK-1120212 250 nM or MM-141 1000 nM", "value": "down-regulates the basal level of pAKT"}, {"measurement": "proliferation compared to cells incubated with ligands alone", "setting": "[9]; MM-141 1000 nM in addition to HRG 10 nM and IGF-1 50 nM, with gemcitabine or paclitaxel", "value": "reduced proliferation"}, {"measurement": "sensitivity to gemcitabine in cells stimulated with HRG and IGF-1", "setting": "[9]; gemcitabine 2 nM, HRG 10 nM, IGF-1 50 nM, MM-141 1000 nM, 96 hours", "value": "restores sensitivity"}, {"measurement": "sensitivity to paclitaxel in cells stimulated with HRG and IGF-1", "setting": "[9]; paclitaxel 6 nM, HRG 10 nM, IGF-1 50 nM, MM-141 1000 nM, 96 hours", "value": "restores sensitivity"}, {"measurement": "sensitivity to cytotoxic properties of paclitaxel in a high IGF-1 setting", "setting": "[10]; [13]", "value": "re-sensitize cells"}, {"measurement": "sensitivity to cytotoxic properties of paclitaxel in the presence of high HRG", "setting": "[10]; [13]", "value": "re-sensitize cells"}, {"measurement": "resistance to cytotoxic effect of paclitaxel caused by IGF-1 or heregulin", "setting": "[10]; paclitaxel 50 nM, IGF-1 or HRG 0-50 nM, MM-141 500 nM", "value": "resistance was reversed"}, {"measurement": "ErbB3 level in tumor biopsy", "setting": "[11]", "value": "decreased; also recorded: Down-regulation"}, {"measurement": "IGF-1R level in tumor biopsy", "setting": "[11]", "value": "decreased; also recorded: Down-regulation"}]}
